# Experimental data reported in PMC10649961, “Novel Mitochondria-Targeted Amphiphilic Aminophosphonium Salts and Lipids Nanoparticles: Synthesis, Antitumor Activity and Toxicity” (Nanomaterials, 2023).
# Legend:
# A549 [1] = assay: cells; details: Homo sapiens, A549, 48 h, read-out: Cytotoxic Effects (IC50)
# MRSA-1 = assay: Antimicrobial activity, serial microdilutions, MRSA-1; format: cell-based, S. aureus; parameters: key to Minimum Inhibitory Concentration (MIC) / Minimum bactericidal and fungicidal concentrations (MBC, MFC): – means non-active
# Experimental: (§1) The antimicrobial activity of test compounds was determined by serial microdilutions in 96-well plates using Mueller-Hinton broth for bacterial culture and Sabouraud broth for yeast culture. Cultures of Gram-positive bacteria were used in the experiment: Staphylococcus aureus ATCC 6538 P FDA 209P, Bacillus cereus ATCC 10702 NCTC 8035, Enterococcus faecalis ATCC 29212; Gram-negative bacteria: Escherichia coli ATCC 25922, Pseudomonas aeruginosa ATCC 9027; and yeast: Candida albicans ATCC 10231, purchased from the State Collection of Pathogenic Microorganisms and Cell Cultures “SCPM-Obolensk” (Obolensk, Russia). Methicillin-resistant strains of S. aureus (MRSA) were isolated from patients with chronic tonsillitis (MRSA-1) and sinusitis (MRSA-2) in the bacteriological laboratory of the Republican Clinical Hospital (Kazan, Russia). The experiments were carried out in triplicate.
# T98G [2] = assay: cells; details: Homo sapiens, 48 h, read-out: Cytotoxic Effects (IC50)
# PANC-1 [3] = details: calculated relative to the cell line Chang liver (b)
# Hep G2 [4] = assay: cells; details: Homo sapiens, HepG2, 48 h, read-out: Cytotoxic Effects (IC50)
# M-HeLa [5] = assay: cells; details: Homo sapiens, 48 h, read-out: Cytotoxic Effects (IC50)
# MCF-7 [6] = assay: cells; details: Homo sapiens, MCF7, 48 h, read-out: Cytotoxic Effects (IC50)
# MRSA-2 = assay: Antimicrobial activity, serial microdilutions, MRSA-2; format: cell-based, S. aureus; details: Staphylococcus aureus
# Experimental: as §1
# [7] = In vivo acute toxicity, single intraperitoneal injection; parameters: species or system mice; details: male, CD-1, mouse, in vivo, ip, male CD-1 mice, single intraperitoneal administration, 14 days, Probit analysis
# Experimental: (§2) The study of acute toxicity was performed on males of outbred white mice of the CD-1 line at the age of 2–3 months, weighing 20–30 g. The total number of mice participating in the experiment was 300. Mice were obtained from the Research and Production Enterprise Laboratory Animal Farm based at the Branch of Shemyakin and Ovchinnikov Institute of Bioorganic Chemistry of the Russian Academy of Sciences (Pushchino, Russia). The animals were kept in accordance with in standard conditions in a vivarium with 12 h of daylight and free access to food and water. The animals were fed complete feed made according to specifications (protein 22%, fiber 4% max., fat 5% max, ash 9% max, humidity 13.5% max, caloric value 295 kcal/100 g). The studies were conducted with a single parenteral–intraperitoneal (intra-peritoneal) injection, according to the method.
# (§3) The substances were introduced in a sterile saline DMSO (40% vol.) solution. Solutions of the substances were prepared immediately before administration. The total volume of the injected liquid was 0.1 mL/10 g of animal weight. As a control, a group of mice was administered under similar conditions an equivalent amount (0.1 mL/10 g, or 10 mL/kg) of a solvent—40% DMSO on sterile saline solution. The substances were administered in doses ranging from 1 to 100 mg/kg; there were six animals in each group. To assess acute toxicity, the animals were monitored 14 days after administration of the substance, assessing their general condition and recording deaths.
# (§4) The study of the acute toxicity parameters of six aminophosphonium salts 4a, 4b, 4d, 5a, 5b, and 6b was performed on male outbreed white mice of the CD-1 line. Acute toxicity was determined with a single parenteral (intraperitoneal) administration in sterile saline/DMSO (40% vol.) solution at doses from 1 to 100 mg/kg. To assess acute toxicity, the animals were monitored for 14 days after the introduction of substances, assessing their general condition and recording deaths. Next, lethal doses LD50, LD0, LD16, LD84, and LD100 were calculated using the Probit analysis method. LD0, LD16, LD84, and LD100 are given in Supplementary Material (Table S1).
# mice of the CD-1 line = assay: as above
# Experimental: as §2, §3, §4
# [8] = tested on: Pseudomonas aeruginosa ATCC 9027; assay: Antimicrobial activity, serial microdilutions, Pa; format: cell-based; parameters: key to Minimum Inhibitory Concentration (MIC) / Minimum bactericidal and fungicidal concentrations (MBC, MFC): – means non-active
# Experimental: as §1
# [9] = tested on: Staphylococcus aureus ATCC 6538 P FDA 209P; assay: Antimicrobial activity, serial microdilutions, Sa; format: cell-based; details: Staphylococcus aureus
# Experimental: as §1
# SK-OV-3 [10] = details: reference normal cell line not marked at the place (ns cells)
# PC3 [11] = details: reference normal cell line not marked at the place (ns cells)
# HuTu 80 [12] = assay: cells; details: Homo sapiens, HuTu80, 48 h, read-out: Cytotoxic Effects (IC50)
# A549 [13] = details: reference normal cell line not marked at the place (ns cells)
# PANC-1 [14] = assay: cells; details: Homo sapiens, PANC-1, 48 h, read-out: Cytotoxic Effects (IC50)
# [15] = tested on: Enterococcus faecalis ATCC 29212; assay: Antimicrobial activity, serial microdilutions, Ef; format: cell-based; details: Enterococcus faecalis
# Experimental: as §1
# HuTu 80 [16] = details: calculated relative to the cell line Chang liver (b)
# [17] = tested on: Candida albicans ATCC 10231; assay: Antimicrobial activity, serial microdilutions, Ca; format: cell-based; parameters: key to Minimum Inhibitory Concentration (MIC) / Minimum bactericidal and fungicidal concentrations (MBC, MFC): – means non-active; details: Ca
# Experimental: as §1
# M-HeLa [18] = details: reference normal cell line not marked at the place (ns cells)
# [19] = tested on: Bacillus cereus ATCC 10702 NCTC 8035; assay: Antimicrobial activity, serial microdilutions, Bc; format: cell-based; parameters: key to Minimum bactericidal and fungicidal concentrations (MBC, MFC): – means non-active; details: Bc
# Experimental: as §1
# DU-145 [20] = assay: cells; details: Homo sapiens, DU-145, 48 h, read-out: Cytotoxic Effects (IC50), DU-145, MTT assay, 48 h
# MCF-7 [21] = details: reference normal cell line not marked at the place (ns cells)
# PC3 [22] = assay: cells; details: Homo sapiens, PC-3, 48 h, read-out: Cytotoxic Effects (IC50), PC3, MTT assay, 48 h
# Hep G2 [23] = details: reference normal cell line not marked at the place (ns cells)
# SK-OV-3 [24] = assay: cells; details: Homo sapiens, SK-OV-3, 48 h, read-out: Cytotoxic Effects (IC50)
# DU-145 [25] = details: reference normal cell line not marked at the place (ns cells)
# T98G [26] = details: reference normal cell line not marked at the place (ns cells)
# [27] = tested on: Escherichia coli ATCC 25922; assay: Antimicrobial activity, serial microdilutions, Ec; format: cell-based; parameters: key to Minimum Inhibitory Concentration (MIC) / Minimum bactericidal and fungicidal concentrations (MBC, MFC): – means non-active
# Experimental: as §1
# [28] = read-out: Minimum Inhibitory Concentration (MIC)
# [29] = read-out: Minimum bactericidal and fungicidal concentrations (MBC, MFC)
smiles,measurement,setting,value
"CCCCCC[P+](N(CC)CC)(N(CC)CC)N(CC)CC [4a, Tris(diethylamino)(hexyl)phosphonium iodide]",IC50,A549 [1],64.1 ± 4.5 µM
same,"Minimum bactericidal and fungicidal concentrations (MBC, MFC)",MRSA-1,–
same,MIC,"MRSA-1; Staphylococcus aureus, read-out: Minimum Inhibitory Concentration (MIC)",125 ± 10 µM
same,IC50,T98G [2],57.4 ± 4 µM
same,selectivity index (SI),PANC-1 [3],1.1
same,IC50,Hep G2 [4],46.6 ± 3.3 µM
same,IC50,M-HeLa [5],52.4 ± 3.7 µM
same,IC50,MCF-7 [6],26 ± 1.8 µM
same,MIC,MRSA-2; [28],125 ± 11 µM
same,MBC,MRSA-2; [29],125 ± 10 µM
same,LD50 at 14 days,[7],31.7 mg/kg
same,onset of animal death after administration,"mice of the CD-1 line; CD-1 mice, i.p., doses of LD100",1 to 2 h
same,acute toxicity class,"mice of the CD-1 line; according to the classification [105], parenteral administration",moderately toxic
same,Minimum Inhibitory Concentration (MIC),[8],–
same,"Minimum bactericidal and fungicidal concentrations (MBC, MFC)",[8],–
same,MIC,[9]; [28],62.5 ± 5.2 µM
same,MBC,[9]; [29],250 ± 20 µM
same,selectivity index (SI),SK-OV-3 [10],ns (ns—no selectivity)
same,selectivity index (SI),PC3 [11],ns (ns—no selectivity)
same,IC50,HuTu 80 [12],11.4 ± 0.9 µM
same,selectivity index (SI),A549 [13],ns (ns—no selectivity)
same,IC50,PANC-1 [14],16.1 ± 1.3 µM
same,MIC,"[15]; ATCC29212, read-out: Minimum Inhibitory Concentration (MIC)",250 ± 21 µM
same,MBC,"[15]; ATCC29212, read-out: Minimum bactericidal and fungicidal concentrations (MBC, MFC)",500 ± 46 µM
same,selectivity index (SI),HuTu 80 [16],1.6
same,Minimum Inhibitory Concentration (MIC),[17],–
same,"Minimum bactericidal and fungicidal concentrations (MBC, MFC)",[17],–
same,selectivity index (SI),M-HeLa [18],ns (ns—no selectivity)
same,MIC,"[19]; Bacillus cereus, read-out: Minimum Inhibitory Concentration (MIC)",62.5 ± 5.3 µM
same,"Minimum bactericidal and fungicidal concentrations (MBC, MFC)",[19],–
same,IC50,DU-145 [20],26.2 ± 1.9 µM
same,selectivity index (SI),MCF-7 [21],ns (ns—no selectivity)
same,IC50,PC3 [22],44 ± 3.1 µM
same,selectivity index (SI),Hep G2 [23],ns (ns—no selectivity)
same,IC50,SK-OV-3 [24],46.6 ± 3.5 µM
same,selectivity index (SI),DU-145 [25],ns (ns—no selectivity)
same,selectivity index (SI),T98G [26],ns (ns—no selectivity)
same,Minimum Inhibitory Concentration (MIC),[27],–
same,"Minimum bactericidal and fungicidal concentrations (MBC, MFC)",[27],–
